{"source": "paper PMC9629705", "about": "“Canonical strigolactones are not the major determinant of tillering but important rhizospheric signals in rice” (Science Advances, 2022)", "key": {"OsMAX1-1400": {"biological_target": "T1, OsMAX1-1400 (Oryza sativa, UniProt W5QV10)", "T1 construct": "gene Os01g0701400", "T1 sequence (W5QV10 1-541)": "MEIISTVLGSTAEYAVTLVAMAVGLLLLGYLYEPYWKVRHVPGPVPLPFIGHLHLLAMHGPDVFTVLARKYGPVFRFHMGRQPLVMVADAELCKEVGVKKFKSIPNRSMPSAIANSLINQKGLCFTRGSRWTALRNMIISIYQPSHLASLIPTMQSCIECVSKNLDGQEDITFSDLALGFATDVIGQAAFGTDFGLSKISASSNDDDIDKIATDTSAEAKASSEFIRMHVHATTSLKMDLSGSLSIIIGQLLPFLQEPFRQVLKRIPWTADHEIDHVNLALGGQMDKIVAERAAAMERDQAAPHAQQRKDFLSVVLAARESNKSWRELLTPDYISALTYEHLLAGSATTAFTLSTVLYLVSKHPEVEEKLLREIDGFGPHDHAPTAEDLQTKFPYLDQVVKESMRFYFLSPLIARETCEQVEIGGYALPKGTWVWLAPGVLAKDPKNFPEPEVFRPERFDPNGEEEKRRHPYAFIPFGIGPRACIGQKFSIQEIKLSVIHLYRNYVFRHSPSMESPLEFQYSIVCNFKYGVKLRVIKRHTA", "assay": "LC-MS/MS enzyme assay (4DO to orobanchol) with microsomes of yeast overexpressing the enzyme", "type": "biochemical"}, "OsMAX1-900": {"biological_target": "T2, OsMAX1-900 (Oryza sativa, UniProt M9R6D3)", "T2 construct": "gene Os01g0700900", "T2 sequence (M9R6D3 1-539)": "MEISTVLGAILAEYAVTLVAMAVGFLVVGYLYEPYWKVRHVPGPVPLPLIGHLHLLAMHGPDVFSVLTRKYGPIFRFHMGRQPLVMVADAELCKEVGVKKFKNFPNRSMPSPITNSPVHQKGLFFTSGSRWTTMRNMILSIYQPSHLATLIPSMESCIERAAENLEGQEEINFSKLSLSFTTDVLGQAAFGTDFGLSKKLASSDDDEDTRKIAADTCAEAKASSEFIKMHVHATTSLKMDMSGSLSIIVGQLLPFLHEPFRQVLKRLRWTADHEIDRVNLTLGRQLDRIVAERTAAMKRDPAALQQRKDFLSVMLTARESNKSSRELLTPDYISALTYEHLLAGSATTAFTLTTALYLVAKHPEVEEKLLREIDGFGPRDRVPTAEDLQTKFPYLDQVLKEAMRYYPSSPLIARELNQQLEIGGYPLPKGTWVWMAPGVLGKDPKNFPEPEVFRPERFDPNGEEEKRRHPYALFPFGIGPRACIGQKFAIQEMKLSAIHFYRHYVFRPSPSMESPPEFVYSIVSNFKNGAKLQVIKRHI", "assay": "LC-MS/MS enzyme assay (CL to CLA, CLA to 4DO) with microsomes of yeast overexpressing the enzyme", "type": "biochemical"}}, "data": [{"compound": "O=C(c1ccccc1)C(CCCCOc1ccccc1)n1cncn1", "note": "(centres unmarked) [TIS108]", "values": [{"measurement": "IC50", "setting": "OsMAX1-1400", "value": 20, "unit": "nM"}, {"measurement": "IC50", "setting": "OsMAX1-900", "value": 150, "unit": "nM"}]}]}
